Reference: patent US4393003A, “β-Lactamase inhibitors” (Hoffmann-La Roche Inc., priority 1981, dated 1983)
Like-named read-outs stand apart in the source and are kept apart here.

Experiments:
[1] = molecular target: T1, inducible penicillinase from Staphylococcus aureus 1059B (Staphylococcus aureus, UniProt P00807); experiment: Cell-free enzyme assay, inhibition of nitrocefin hydrolysis; type: biochemical
T1 construct: the inducible penicillinase from Staphylococcus aureus 1059B; endogenous in cells; host or cells: Staphylococcus aureus 1059B
Experimental: (§1) The test compound is preincubated with enzyme for 20 min. at 30° C. and pH 7. Chromogenic cephalosporin substrate, nitrocefin, is added and its initial rate of hydrolysis is recorded spectrophotometrically. Three enzyme preparations were employed:
(a) the inducible penicillinase from Staphylococcus aureus 1059B,
(§2) Included for comparison purposes were the antibiotics cloxacillin and dicloxacillin. I50 (μM) is calculated as the concentration necessary to inhibit the rate of nitrocefin hydrolysis by 50%.

[2] = molecular target: T2, constitutive broad-spectrum TEM type beta-lactamase mediated by the resistance transfer factor R1 in Escherichia coli 1263B (Escherichia coli, UniProt P62593); experiment: as above; type: biochemical; conditions: preincubated with enzyme 20 min, 30° C., pH 7; nitrocefin substrate; read-out: I50, Escherichia coli R1
T2 construct: mediated by the resistance transfer factor R1 in Escherichia coli 1263B; endogenous in cells; host or cells: Escherichia coli 1263B carrying resistance transfer factor R1
Experimental: as §1
(b) the constitutive broad-spectrum TEM type beta-lactamase mediated by the resistance transfer factor R1 in Escherichia coli 1263B, and
as §2

[3] = molecular target: T3, type Ia cephalosporinase from Enterobacter cloacae (Enterobacter cloacae, UniProt P05364); experiment: as above; type: biochemical
T3 construct: purchased Miles Laboratories
Experimental: as §1
(c) the type Ia cephalosporinase from Enterobacter cloacae purchased from Miles Laboratories.
as §2

[4] = test system: E. Cloacae P99; experiment: In vitro MIC by agar dilution, alone and mecillinam potentiation; type: cell-based
Experimental: (§3) The efficacy of putative β-lactamase inhibitors is assessed by determining the effect of the test compounds on the minimal inhibitory concentrations (MICs) of β-lactamase-sensitive antibiotics against bacterial strains known to produce β-lactamases.
(§4) The antibacterial activity of the β-lactamase inhibitor against the test strains is determined by a standard agar dilution method. Serial two-fold dilutions of the β-lactamase inhibitor are prepared in water to give concentrations 10 times the final desired concentrations. The aqueous dilutions are then further diluted 1:10 in Mueller-Hinton (MH) agar. These agar mixtures are poured into petri plates and allowed to harden. Each plate, including a drug-free control plate, is inoculated by means of a Steers replicator with 0.05 mL of 10^-4 dilutions of the test organisms. The 10^'4 dilutions of the organisms are prepared in MH broth from overnight TS broth cultures. The plates are examined for growth after overnight incubation at 37° C. The lowest drug concentration at which three or fewer colonies are observed is considered to be the MIC.
(§5) The β-lactamase inhibitor is then tested for potentiation of the antibiotic mecillinam. Aqueous solutions are prepared containing serial two-fold dilutions of mecillinam in the presence of the β-lactamase inhibitor at a constant concentration 2-4 fold less than its MIC for the most sensitive of the test organisms. The same procedure as above is then followed. Controls include a drug-free plate and a plate containing the β-lactamase inhibitor at the concentration used in the test. The MIC of mecillinam as a single agent is also determined at the same time.

[5] = test system: E. Coli 7289; experiment: as above; type: cell-based; conditions: single agent, Mueller-Hinton agar, overnight 37° C.
Experimental: as §3, §4, §5

[6] = test system: E. Coli K12R1; experiment: as above; type: cell-based; conditions: single agent, Mueller-Hinton agar, overnight 37° C.
Experimental: as §3, §4, §5

[7] = test system: E. Coli ST 323; experiment: as above; type: cell-based; conditions: single agent, Mueller-Hinton agar, overnight 37° C.
Experimental: as §3, §4, §5

[8] = test system: P. Aeruginosa 5700; experiment: as above; type: cell-based
Experimental: as §3, §4, §5

[9] = test system: S. Marcescens S5; experiment: as above; type: cell-based; conditions: single agent, Mueller-Hinton agar, overnight 37° C.
Experimental: as §3, §4, §5

[10] = preincubated with enzyme 20 min, 30° C., pH 7, nitrocefin substrate, read-out: I50, Staphylococcus aureus
[11] = preincubated with enzyme 20 min, 30° C., pH 7, nitrocefin substrate, read-out: I50, Enterobacter cloacae
[12] = Escherichia coli, read-out: MIC

T3 sequence (P05364 21-381): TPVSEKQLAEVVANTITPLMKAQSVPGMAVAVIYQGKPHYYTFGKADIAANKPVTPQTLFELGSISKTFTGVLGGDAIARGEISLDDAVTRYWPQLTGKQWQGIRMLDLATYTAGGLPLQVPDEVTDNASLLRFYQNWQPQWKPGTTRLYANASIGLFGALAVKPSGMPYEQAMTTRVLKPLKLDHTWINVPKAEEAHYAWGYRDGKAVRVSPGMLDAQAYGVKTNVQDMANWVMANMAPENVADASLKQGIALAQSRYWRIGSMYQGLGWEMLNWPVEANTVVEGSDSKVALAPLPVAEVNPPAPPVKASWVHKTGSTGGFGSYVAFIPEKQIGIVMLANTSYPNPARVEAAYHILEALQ
T2 sequence (P62593 24-286 limits assumed): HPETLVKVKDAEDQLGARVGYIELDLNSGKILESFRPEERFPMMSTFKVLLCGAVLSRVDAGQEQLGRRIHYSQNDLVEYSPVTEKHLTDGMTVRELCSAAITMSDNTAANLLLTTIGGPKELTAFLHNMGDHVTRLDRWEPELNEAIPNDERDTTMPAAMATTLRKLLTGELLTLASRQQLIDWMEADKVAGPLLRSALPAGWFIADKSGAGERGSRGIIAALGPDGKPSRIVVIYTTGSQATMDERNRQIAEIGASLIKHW
T1 sequence (P00807 25-281): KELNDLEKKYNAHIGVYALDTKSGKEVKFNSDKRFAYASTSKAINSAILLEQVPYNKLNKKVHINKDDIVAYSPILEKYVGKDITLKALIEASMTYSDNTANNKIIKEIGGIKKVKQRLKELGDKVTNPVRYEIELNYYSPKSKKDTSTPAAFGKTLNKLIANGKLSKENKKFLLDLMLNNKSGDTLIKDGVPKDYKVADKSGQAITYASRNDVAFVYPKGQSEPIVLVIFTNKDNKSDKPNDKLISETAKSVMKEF

## Cc1onc(-c2ccccc2Cl)c1C(=O)N[C@@H]1C(=O)N2[C@@H]1SC(C)(C)[C@@H]2C(=O)O [Cloxacillin]
[1]; [10]
  IC50: 365 µM
[2]
  IC50: 68 µM
[3]; [11]
  IC50: 0.0015 µM

## Cc1onc(-c2c(Cl)cccc2Cl)c1C(=O)N[C@@H]1C(=O)N2[C@@H]1SC(C)(C)[C@@H]2C(=O)O [Dicloxacillin]
[1]; [10]
  IC50: 96 µM
[2]
  IC50: 32 µM
[3]; [11]
  IC50: 0.0014 µM

## C[C@]12C[C@@]1(C(=O)O)N1C(=O)C[C@H]1S2(=O)=O [compound of formula I, [2S-(2α,4α,6α)]-4-Methyl-8-oxo-5-thia-1-azatricyclo[4.2.0.0^2,4]octane-2-carboxylic acid 5,5-dioxide]
[1]
  IC50: 6.7 µM
[2]
  IC50: 1.1 µM
[3]
  IC50: 69 µM
[4]; E. Cloacae P99, single agent, Mueller-Hinton agar, overnight 37° C.
  MIC: Inert
[5]
  MIC: Inert
[6]
  MIC: Inert
[7]
  MIC: Inert
[8]; P. Aeruginosa 5700, single agent, Mueller-Hinton agar, overnight 37° C.
  MIC: Inert
[9]
  MIC: Inert

## CC1(C)S[C@@H]2[C@H](/N=C/N3CCCCCC3)C(=O)N2[C@H]1C(=O)O [Mecillinam, mecillinam]
[4]; Enterobacter cloacae
  MIC: 0.03 µg/mL
[5]; [12]
  MIC: 32 µg/mL
[6]; [12]
  MIC: 1 µg/mL
[7]; [12]
  MIC: 4 µg/mL
[8]; Pseudomonas aeruginosa
  MIC: > 128 µg/mL
[9]; Serratia marcescens, read-out: MIC
  MIC: 4 µg/mL
